Assay results published in ChEMBL document CHEMBL1201862, “PubChem BioAssay data set” (2004).
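Tested at 5 concentrations; 48 h exposure; 96-well plates; endpoints linearly interpolated, else capped at highest concentration. Abbreviation: GI50, concentration required for 50% inhibition of growth.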 Active and inactive are the calls of the source. Cut-off read from the data, not from the text of the source: active = GI50 up to about 1.1 µM and inactive = higher.

How the values were obtained:
Experiment in all cases: inhibition of tumour cell growth, NCI panel, 48 h
[1] = tested on: BT-549
[2] = tested on: MDA-N
[3] = tested on: DLD-1
[4] = tested on: KM-20L2
[5] = tested on: LXFL 529
[6] = tested on: M19-MEL
[7] = tested on: RXF 631
[8] = tested on: SNB-78

Measured: GI50

Brc1ccc2c(c1)[C@H]1CCc3c([nH]c4ccccc34)[C@H]1N2
inactive: [1] 18.4 µM | [2] 14.9 µM

COC(=O)/C=C\n1ncc(=O)[nH]c1=O
inactive: [1] > 100 µM | [2] > 100 µM

C=C(C)C1Cc2c(c3ccccc3n(C)c2=O)O1 (stereo not given)
inactive: [3] > 100 µM | [4] > 100 µM | [5] > 100 µM | [6] > 100 µM | [7] > 100 µM | [8] > 100 µM

CC(=O)Nc1ccc(Sc2nnc(NC(C)=O)s2)cc1
inactive: [2] > 100 µM

CN(C)CCCNC(=O)N/N=C\c1cccc2ccccc12
inactive: [2] > 10 µM

CN(CCO)/N=N/c1[nH]cnc1C(N)=O
inactive: [3] > 100 µM | [4] > 100 µM | [5] > 100 µM | [6] > 100 µM | [8] > 100 µM

CN(C)CCNC(=O)c1cccc2c(=O)c3ccccc3oc12
inactive: [3] 29.6 µM | [4] 34.9 µM | [6] 22.9 µM | [8] 37.1 µM

COc1cc(C2c3cc4c(cc3[C@@H](Nc3ccccc3)C3COC(=O)[C@H]23)OCO4)cc(OC)c1O (stereo not given in full)
inactive: [3] 1.66 µM | [4] 2.1 µM | [6] 1.55 µM | [8] 2.37 µM
